Reference: patent EP1724268A1, “COMPOUND HAVING TGF-BETA INHIBITORY ACTIVITY AND PHARMACEUTICAL COMPOSITION CONTAINING SAME” (KIRIN BEER KABUSHIKI KAISHA, priority 2004, dated 2005)
Read-outs that look alike come from different tables or passages of the source.

System: TGFβ signal
Experiment: TGFβ signal inhibitory activity, (SBE)4-Luc reporter in A549 cells (Test Examples 1A and 1B)
Type: cell-based, human
Settings: Homo sapiens, A549, read-out: TGFβ inhibition rate, %
Outline: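 Compounds at 3 µM and 10 µM (some 1 µM) were added with 2 ng/ml TGFβ-1 to A549 cells stably expressing an SBE-driven luciferase, then cultured 4 hr. Chemiluminescent luciferase signal gave % inhibition versus TGFβ-alone and no-TGFβ controls.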

[1] = 3 µM, compounds of Reference Examples (Test Example 1B)
[2] = 10 µM, compounds of Reference Examples (Test Example 1B)
[3] = test compound 3 µM, Reference Examples, Table 1B
[4] = test compound 10 µM, Reference Examples, Table 1B
[5] = test compound 3 µM, TGFβ-1 2 ng/ml, 4 hr, Table 1A
[6] = test compound 10 µM, TGFβ-1 2 ng/ml, 4 hr, Table 1A

For `COc1cc2nccc(Oc3cc(C)c(C)cc3I)c2cc1OC` [Compound r164, 4-(2-Iodo-4,5-dimethyl-phenoxy)-6,7-dimethoxy-quinoline], the inhibition at 3 µM [1] was 54% and the inhibition at 10 µM [2] was 98%.

`CCOC(=O)c1cc(Br)ccc1Oc1ccnc2cc(OC)c(OC)cc12` [Compound r85] was tested, and the inhibition at 3 µM [3] was 87% and the inhibition at 10 µM [4] was 100%.

`COc1cc2c(Oc3cc4cccnc4nc3-c3ccccc3)ccnc2cc1F` [Compound 60, 3-(7-Fluoro-6-methoxy-quinolin-4-yloxy)-2-phenyl-[1,8]naphthyridine] showed an inhibition at 3 µM [5] of 76% and an inhibition at 10 µM [6] of 100%.

`c1ccc(-c2nc3ncccc3cc2Oc2ccnc3cccnc23)cc1` [Compound 73, 4-(2-Phenyl-[1,8]naphthyridin-3-yloxy)-[1,5]naphthyridine] was tested, and the inhibition at 3 µM [5] was 26% and the inhibition at 10 µM [6] was 80%.

`COc1cc2nccc(Oc3ccc(Br)cc3C(=O)Nc3ccc(Cl)cc3)c2cc1OC` [Compound r108] showed an inhibition at 3 µM [3] of 0% and an inhibition at 10 µM [4] of 73%.

With `CCc1ccc(Oc2ccnc3cc(OC)c(OC)cc23)c(-c2cccnc2)n1` [Compound 46, 3-(6,7-Dimethoxy-quinolin-4-yloxy)-6-ethyl-[2,3']bipyridine] the inhibition at 3 µM [5] was 100% and the inhibition at 10 µM [6] was 100%.

With `COc1cc2c(Oc3cc(C)c(C)nc3-c3ccccn3)ccnc2cc1O` [Compound r338] the inhibition at 3 µM [1] was 92% and the inhibition at 10 µM [2] was 100%.

`COc1cc2c(Oc3ccc(C)cc3C(=O)c3ccccc3)ccnc2cc1OCC(O)CN1CCC(N2CCCCC2)CC1` (stereo not shown) [Compound r156] was tested, and the inhibition at 3 µM [3] was 99% and the inhibition at 10 µM [4] was 100%.

`c1ccc(-c2nc3ncccc3cc2Oc2ccnc3ccncc23)cc1` [Compound 74, 4-(2-Phenyl-[1,8]naphthyridin-3-yloxy)-[1,6]naphthyridine] was tested, and the inhibition at 3 µM [5] was 53% and the inhibition at 10 µM [6] was 90%.

With `COc1cc2nccc(Oc3ccnc4ccsc34)c2cc1OC` [Compound r307] the inhibition at 3 µM [1] was 26% and the inhibition at 10 µM [2] was 69%.

With `CCOC(=O)c1cc(F)ccc1Oc1ccnc2cc(OC)c(OC)cc12` [Compound r83] the inhibition at 3 µM [3] was 41% and the inhibition at 10 µM [4] was 81%.

Compound `COc1cc2nccc(Oc3cc(C)c(C)nc3-c3ccccn3)c2cc1-c1cccnc1` [Compound 155, 3-(7-Methoxy-6-pyridin-3-yl-quinotin-4-yloxy)-5,6-dimethyl-[2,2']bipyridine] has an inhibition at 3 µM [5] of 99% and an inhibition at 10 µM [6] of 100%.

In the case of `Cc1ccc(-c2ccc3c(Oc4cc(C)c(C)nc4-c4ccccn4)ccnc3c2)cc1` [Compound 20, 5,6-Dimethyl-3-(7-p-tolyl-quinolin-4-yloxy)-[2,2']bipyridine], the inhibition at 3 µM [5] is reported as 90% and the inhibition at 10 µM [6] is reported as 100%.

`COc1cc2c(Oc3cc(C)c(C)nc3-c3ccc(C)cn3)ccnc2cc1O` [Compound r453] showed an inhibition at 3 µM [1] of 72% and an inhibition at 10 µM [2] of 98%.

Compound `COc1cc2nccc(Oc3ccc(F)nc3-c3ccccn3)c2cc1OC` [Compound 115, 3-(6,7-Dimethoxy-quinolin-4-yloxy)-6-fluoro-[2,2']bipyridine] has an inhibition at 3 µM [5] of 100% and an inhibition at 10 µM [6] of 100%.

`COc1cc2nccc(Oc3ccc(Br)cc3C(C)=O)c2cc1OC` [r34] showed an inhibition at 3 µM [3] of 0% and an inhibition at 10 µM [4] of 78%.

`COc1cc2c(Oc3ccc(C)cc3C(=O)c3ccccc3)ccnc2cc1OCCN1CCC(N2CCCC2)CC1` [Compound r127] was tested, and the inhibition at 3 µM [3] was 99% and the inhibition at 10 µM [4] was 100%.

`CCC(O)c1cc(C)ccc1Oc1ccnc2cc(OC)c(OC)cc12` (stereo not shown) [Compound r9, 1-{2-[(6,7-Dimethoxy-4-quinolyl)oxy]-5-methylphenyl}-1-propanol] was tested, and the inhibition at 3 µM [3] was 29% and the inhibition at 10 µM [4] was 77%.

Compound `COc1cc2ncnc(Oc3cc(C)c(C)nc3-c3ccccn3)c2cc1OC` [Compound 27, 4-(5,6-Dimethyl-[2,2']bipyridin-3-yloxy)-6,7-dimethoxy-quinazoline] has an inhibition at 1 µM (test compound 1 µM, TGFβ-1 2 ng/ml, 4 hr, Table 1A) of 89% and an inhibition at 3 µM [5] of 100%.

In the case of `COc1cc2nccc(Oc3c(Br)cc(Br)cc3C(=O)Nc3ccc(Br)cc3)c2cc1OC` [Compound r113], the inhibition at 3 µM [3] is reported as 0% and the inhibition at 10 µM [4] is reported as 96%.

`COc1cc2c(Oc3cc(C)c(C)nc3-c3ccccc3)ccnc2cc1OCC1CO1` (stereo not shown) [Compound r334] showed an inhibition at 3 µM [1] of 99%.

`COc1cc2nccc(Oc3ccc(C)cc3C(=O)N3CCCCC3)c2cc1OC` [r109] showed an inhibition at 3 µM [3] of 5% and an inhibition at 10 µM [4] of 66%.

Compound `COc1cc2nccc(Oc3ccccc3C(=O)OCC(C)C)c2cc1OC` [Compound r97] has an inhibition at 3 µM [3] of 14% and an inhibition at 10 µM [4] of 92%.

For `COc1cc2nccc(Oc3ccc(C)cc3Cl)c2cc1OC` [Compound r3], the inhibition at 3 µM [3] was 0% and the inhibition at 10 µM [4] was 75%.

Compound `COc1cc2c(Oc3ccc(C)cc3C(=O)c3ccccc3)ccnc2cc1OCCCCN1CCOCC1` [Compound r149] has an inhibition at 3 µM [3] of 96% and an inhibition at 10 µM [4] of 100%.
